Test results reported in patent US5958983A, “Polyaromatic antiviral compositions” (Pharmacia & Upjohn Company, priority 1998, dated 1999).

Columns and labels:
[1] = tested on: HSV-1; test: Inhibition of HSV-1 viral replication (virus yield reduction assay, Vero cells); type: cell-based, herpes simplex virus type-1; details: 14-16 hours
Description: (§1) Compounds of the formulas II and III of the present invention are evaluated in an assay to measure the inhibition of HSV-1 viral replication in the presence of drug over a 14-16 hour period. The assay is discussed in detail by Pritchard, M. N. et al. "A Microliter Virus Yield Reduction Assay for the Evaluation of Antiviral Compounds Against Human Cytomegalovirus and Herpes Simplex Virus", J. Virol. Meth., Vol. 28, pp 101-106 (1990). Briefly, 80% confluent monolayers of Vero cells in 24 well plates are infected with low multiplicities of HSV-1 (MOI=0.001). After an absorption period of 1 hour at 37° C., the monolayers are rinsed with culture media and aliquots of compounds diluted into tissue culture media are added for 14-16 hours at 37° C. in a CO2 atmosphere. The growth media is removed and 1 ml of fresh media is added to each well and plates are placed at -70° C. After a 1-5 day storage period the plates are rapidly thawed, samples are collected on ice and titrated on fresh Vero cell monolayers. Viral plaques are stained with 0.1% crystal violet in 20% alcohol for 10 minutes and are counted. Data are calculated to reflect the percentage of inhibition at indicated concentration relative to infected, non-drug treated controls.
(§2) In the Tables, the sign "+++" refers to >90% inhibition at the indicated concentration. The sign "++" refers to >50% inhibition at the indicated concentration. The sign "+" refers to <50% inhibition at the indicated concentration. The sign "-" refers that no inhibitory activity is observed at the indicated concentration. A blank cell means the datum is not available.

[2] = tested on: VZV; test: Inhibition of VZV replication (plaque reduction, HFF cells); type: cell-based, varicella zoster virus; details: five days
Description: Antiviral activity against VZV are evaluated in an assay to measure the reduction of viral replication in the number viral plaques formed over five days of incubation in the presence of compounds of the present invention. Aliquots of VZV are added for 90 minutes to 24 well plates having HFF cells at 80% confluence to yield approximately 25 plaques for media treated wells. The plates are flicked and dilutions of compounds in tissue culture media at 2 time strength are added (0.5 ml per well). Immediately following the addition of drug 0.5 ml of 1.0% agarose is added to the wells and the plates are gently tapped to aid mixing. This final concentration of agarose (0.5%) is […] to solidify at 37° C. and serves as a semi solid overlay medium. Plates are undisturbed for five days. On day 5 the plates are examined microscopically for toxicity and plaques are counted using low power microscopy.
as §2

[3] = tested on: HSV-2; test: Inhibition of HSV-2 viral replication (substantially same assay as HSV-1); type: cell-based, herpes simplex virus type-2; details: 14-16 hours
Description: as §1
Compounds of the formulas II and III of the present invention are also evaluated in substantially the same assay as described above to measure the inhibition of HSV-2 viral replication.
as §2

SMILES: COc1ccc(NC(=S)Nc2ccc(Cl)cc2)cc1NC(=S)Nc1ccc(Cl)cc1 [Example 6, N,N"-(4-methoxy-1,3-phenylene)bis[N'-(4-chlorophenyl)thiourea]]
- % Inhibition Against HSV-1 Viral Replication, 5 μm [1]: - (no inhibitory activity is observed at the indicated concentration)
- % Inhibition Against HSV-1 Viral Replication, 30 μm [1]: + (<50% inhibition at the indicated concentration)

SMILES: COc1ccc(NC(=O)Nc2ccc(Cl)cc2)cc1NC(=O)Nc1ccc(Cl)cc1 [Example 3, N,N"-(4-methoxy-1,3-phenylene)bis[N'-(4-chlorophenyl)urea]]
- % Inhibition Against HSV-1 Viral Replication, 5 μm [1]: + (<50% inhibition at the indicated concentration)
- % Inhibition Against HSV-1 Viral Replication, 30 μm [1]: + (<50% inhibition at the indicated concentration)

SMILES: O=S(=O)(c1ccc(OCc2ccc(Br)cc2)cc1)c1ccc(OCc2ccc(Br)cc2)cc1 [Example 18, bis(4-bromobenzyloxy)(sulfonyldi-4,1-phenylene)]
- % Inhibition Against VZV Viral Replication, 10 μm ([2]; 10 μm): +++ (>90% inhibition at the indicated concentration)
- % Inhibition Against HSV-1 Viral Replication, 5 μm [1]: + (<50% inhibition at the indicated concentration)
- % Inhibition Against HSV-1 Viral Replication, 30 μm [1]: ++ (>50% inhibition at the indicated concentration)

SMILES: N=C(Nc1ccc(Cc2ccc(NC(=N)c3ccccc3)cc2)cc1)c1ccccc1 [Example 13, N,N"-(methylenedi-4,1-phenylene)bis [benzenecarboximidamide]]
- % Inhibition Against VZV Viral Replication, 2 μm [2]: + (<50% inhibition at the indicated concentration)
- % Inhibition Against HSV-2 Viral Replication, 1 μm [3]: + (<50% inhibition at the indicated concentration)
- % Inhibition Against HSV-2 Viral Replication, 10 μm [3]: +++ (>90% inhibition at the indicated concentration)
- % Inhibition Against HSV-1 Viral Replication, 5 μm [1]: + (<50% inhibition at the indicated concentration)
- % Inhibition Against HSV-1 Viral Replication, 30 μm [1]: +++ (>90% inhibition at the indicated concentration)

SMILES: S=C(NCCc1ccccc1)Nc1ccc(Oc2ccc(NC(=S)NCCc3ccccc3)cc2)cc1 [Example 15, N,N"-(oxydi-4,1-phenylene)bis[N'-(2-phenylethyl)thiourea]]
- % Inhibition Against VZV Viral Replication, 2 μm [2]: +++ (>90% inhibition at the indicated concentration)
- % Inhibition Against HSV-2 Viral Replication, 1 μm [3]: + (<50% inhibition at the indicated concentration)
- % Inhibition Against HSV-2 Viral Replication, 10 μm [3]: + (<50% inhibition at the indicated concentration)
- % Inhibition Against HSV-1 Viral Replication, 5 μm [1]: + (<50% inhibition at the indicated concentration)
- % Inhibition Against HSV-1 Viral Replication, 30 μm [1]: + (<50% inhibition at the indicated concentration)

SMILES: O=S(=O)(c1ccc(OCc2ccc(Cl)cc2)cc1)c1ccc(OCc2ccc(Cl)cc2)cc1 [Example 17, bis(4-chlorobenzyloxy)(sulfonyldi-4,1-phenylene)]
- % Inhibition Against VZV Viral Replication, 2 μm [2]: ++ (>50% inhibition at the indicated concentration)
- % Inhibition Against HSV-2 Viral Replication, 1 μm [3]: ++ (>50% inhibition at the indicated concentration)
- % Inhibition Against HSV-2 Viral Replication, 10 μm [3]: ++ (>50% inhibition at the indicated concentration)
- % Inhibition Against HSV-1 Viral Replication, 5 μm [1]: + (<50% inhibition at the indicated concentration)
- % Inhibition Against HSV-1 Viral Replication, 30 μm [1]: ++ (>50% inhibition at the indicated concentration)

SMILES: O=S(=O)(c1ccc(O)cc1)c1ccc(OCc2ccc(Cl)cc2)cc1 [Example 22, (4-chlorobenzyloxy)hydroxy(sulfonyldi-4,1-phenylene)]
- % Inhibition Against HSV-1 Viral Replication, 5 μm [1]: - (no inhibitory activity is observed at the indicated concentration)
- % Inhibition Against HSV-1 Viral Replication, 30 μm [1]: ++ (>50% inhibition at the indicated concentration)

SMILES: O=[N+]([O-])c1ccc(COc2ccc(S(=O)(=O)c3ccc(O)cc3)cc2)cc1 [Example 21, hydroxy(4-nitrobenzyloxy)(sulfonyldi-4,1-phenylene)]
- % Inhibition Against HSV-1 Viral Replication, 5 μm [1]: - (no inhibitory activity is observed at the indicated concentration)
- % Inhibition Against HSV-1 Viral Replication, 30 μm [1]: ++ (>50% inhibition at the indicated concentration)

SMILES: Cc1cccc(NS(=O)(=O)c2ccc(Oc3ccc(S(=O)(=O)Nc4cccc(C)c4)cc3)cc2)c1 [Example 11, bis[N-(3-methylphenyl)aminosulfonyl](oxydi-4,1-phenylene)]
- % Inhibition Against HSV-1 Viral Replication, 5 μm [1]: - (no inhibitory activity is observed at the indicated concentration)
- % Inhibition Against HSV-1 Viral Replication, 30 μm [1]: ++ (>50% inhibition at the indicated concentration)

SMILES: COc1cccc(NS(=O)(=O)c2ccc(Oc3ccc(S(=O)(=O)Nc4cccc(OC)c4)cc3)cc2)c1 [Example 9, bis[N-(3-methoxyphenyl)aminosulfonyl](oxydi-4,1-phenylene)]
- % Inhibition Against HSV-1 Viral Replication, 5 μm [1]: + (<50% inhibition at the indicated concentration)
- % Inhibition Against HSV-1 Viral Replication, 30 μm [1]: +++ (>90% inhibition at the indicated concentration)

SMILES: O=S(=O)(c1ccc(OCc2ccncc2)cc1)c1ccc(OCc2ccncc2)cc1 [Example 19, bis [(4-pyridyl)methoxy](sulfonyldi-4,1-phenylene)]
- % Inhibition Against HSV-1 Viral Replication, 5 μm [1]: + (<50% inhibition at the indicated concentration)
- % Inhibition Against HSV-1 Viral Replication, 30 μm [1]: + (<50% inhibition at the indicated concentration)

SMILES: Cc1ccc(NC(=S)Nc2ccc(Cl)cc2)cc1NC(=S)Nc1ccc(Cl)cc1 [Example 1, N,N"-(4-methyl-1,3-phenylene)bis[N'-(4-chlorophenyl)thiourea]]
- % Inhibition Against HSV-1 Viral Replication, 5 μm [1]: - (no inhibitory activity is observed at the indicated concentration)
- % Inhibition Against HSV-1 Viral Replication, 30 μm [1]: + (<50% inhibition at the indicated concentration)

SMILES: COc1ccc(NC(=O)Nc2ccc(C)cc2)cc1NC(=O)Nc1ccc(C)cc1 [Example 4, N,N"-(4-methoxy-1,3-phenylene)bis[N'-(p-tolyl)urea]]
- % Inhibition Against HSV-1 Viral Replication, 5 μm [1]: + (<50% inhibition at the indicated concentration)
- % Inhibition Against HSV-1 Viral Replication, 30 μm [1]: + (<50% inhibition at the indicated concentration)

SMILES: O=C(Nc1ccc(Oc2ccc(NC(=O)c3ccco3)cc2)cc1)c1ccco1 [Example 16, N,N"-(oxydi-4,1-phenylene)bis(2-furancarboxamide)]
- % Inhibition Against HSV-1 Viral Replication, 5 μm [1]: + (<50% inhibition at the indicated concentration)
- % Inhibition Against HSV-1 Viral Replication, 30 μm [1]: ++ (>50% inhibition at the indicated concentration)

SMILES: O=S(=O)(c1ccc(OCc2ccc(F)cc2)cc1)c1ccc(OCc2ccc(F)cc2)cc1 [Example 20, bis(4-fluorobenzyloxy)(sulfonyldi-4,1-phenylene)]
- % Inhibition Against HSV-1 Viral Replication, 5 μm [1]: + (<50% inhibition at the indicated concentration)
- % Inhibition Against HSV-1 Viral Replication, 30 μm [1]: ++ (>50% inhibition at the indicated concentration)

SMILES: Cc1ccc(NS(=O)(=O)c2cccc(S(=O)(=O)Nc3ccc(C)cc3)c2)cc1 [Example 10, N,N"-(1,3-phenylene)bis[N-(p-tolyl)aminosulfonyl]]
- % Inhibition Against HSV-1 Viral Replication, 5 μm [1]: + (<50% inhibition at the indicated concentration)
- % Inhibition Against HSV-1 Viral Replication, 30 μm [1]: ++ (>50% inhibition at the indicated concentration)
